Laboratory results published in PMC7101356, “Cross-site and cross-platform variability of automated patch clamp assessments of drug effects on human cardiac currents in recombinant cells” (Scientific Reports, 2020).

Tests used:
[1] = target: T1, peak hNav1.5 (Homo sapiens, UniProt Q14524); test: Automated patch clamp, peak hNav1.5 current block; format: cell-based; settings: for nH (=constant), peak hNav1.5 Na+ current inhibition: Hill slope held constant in fit
T1 construct: expressed in transfected cells; host or cells: HEK293 or CHO, depending on site
T1 sequence (Q14524 whole entry): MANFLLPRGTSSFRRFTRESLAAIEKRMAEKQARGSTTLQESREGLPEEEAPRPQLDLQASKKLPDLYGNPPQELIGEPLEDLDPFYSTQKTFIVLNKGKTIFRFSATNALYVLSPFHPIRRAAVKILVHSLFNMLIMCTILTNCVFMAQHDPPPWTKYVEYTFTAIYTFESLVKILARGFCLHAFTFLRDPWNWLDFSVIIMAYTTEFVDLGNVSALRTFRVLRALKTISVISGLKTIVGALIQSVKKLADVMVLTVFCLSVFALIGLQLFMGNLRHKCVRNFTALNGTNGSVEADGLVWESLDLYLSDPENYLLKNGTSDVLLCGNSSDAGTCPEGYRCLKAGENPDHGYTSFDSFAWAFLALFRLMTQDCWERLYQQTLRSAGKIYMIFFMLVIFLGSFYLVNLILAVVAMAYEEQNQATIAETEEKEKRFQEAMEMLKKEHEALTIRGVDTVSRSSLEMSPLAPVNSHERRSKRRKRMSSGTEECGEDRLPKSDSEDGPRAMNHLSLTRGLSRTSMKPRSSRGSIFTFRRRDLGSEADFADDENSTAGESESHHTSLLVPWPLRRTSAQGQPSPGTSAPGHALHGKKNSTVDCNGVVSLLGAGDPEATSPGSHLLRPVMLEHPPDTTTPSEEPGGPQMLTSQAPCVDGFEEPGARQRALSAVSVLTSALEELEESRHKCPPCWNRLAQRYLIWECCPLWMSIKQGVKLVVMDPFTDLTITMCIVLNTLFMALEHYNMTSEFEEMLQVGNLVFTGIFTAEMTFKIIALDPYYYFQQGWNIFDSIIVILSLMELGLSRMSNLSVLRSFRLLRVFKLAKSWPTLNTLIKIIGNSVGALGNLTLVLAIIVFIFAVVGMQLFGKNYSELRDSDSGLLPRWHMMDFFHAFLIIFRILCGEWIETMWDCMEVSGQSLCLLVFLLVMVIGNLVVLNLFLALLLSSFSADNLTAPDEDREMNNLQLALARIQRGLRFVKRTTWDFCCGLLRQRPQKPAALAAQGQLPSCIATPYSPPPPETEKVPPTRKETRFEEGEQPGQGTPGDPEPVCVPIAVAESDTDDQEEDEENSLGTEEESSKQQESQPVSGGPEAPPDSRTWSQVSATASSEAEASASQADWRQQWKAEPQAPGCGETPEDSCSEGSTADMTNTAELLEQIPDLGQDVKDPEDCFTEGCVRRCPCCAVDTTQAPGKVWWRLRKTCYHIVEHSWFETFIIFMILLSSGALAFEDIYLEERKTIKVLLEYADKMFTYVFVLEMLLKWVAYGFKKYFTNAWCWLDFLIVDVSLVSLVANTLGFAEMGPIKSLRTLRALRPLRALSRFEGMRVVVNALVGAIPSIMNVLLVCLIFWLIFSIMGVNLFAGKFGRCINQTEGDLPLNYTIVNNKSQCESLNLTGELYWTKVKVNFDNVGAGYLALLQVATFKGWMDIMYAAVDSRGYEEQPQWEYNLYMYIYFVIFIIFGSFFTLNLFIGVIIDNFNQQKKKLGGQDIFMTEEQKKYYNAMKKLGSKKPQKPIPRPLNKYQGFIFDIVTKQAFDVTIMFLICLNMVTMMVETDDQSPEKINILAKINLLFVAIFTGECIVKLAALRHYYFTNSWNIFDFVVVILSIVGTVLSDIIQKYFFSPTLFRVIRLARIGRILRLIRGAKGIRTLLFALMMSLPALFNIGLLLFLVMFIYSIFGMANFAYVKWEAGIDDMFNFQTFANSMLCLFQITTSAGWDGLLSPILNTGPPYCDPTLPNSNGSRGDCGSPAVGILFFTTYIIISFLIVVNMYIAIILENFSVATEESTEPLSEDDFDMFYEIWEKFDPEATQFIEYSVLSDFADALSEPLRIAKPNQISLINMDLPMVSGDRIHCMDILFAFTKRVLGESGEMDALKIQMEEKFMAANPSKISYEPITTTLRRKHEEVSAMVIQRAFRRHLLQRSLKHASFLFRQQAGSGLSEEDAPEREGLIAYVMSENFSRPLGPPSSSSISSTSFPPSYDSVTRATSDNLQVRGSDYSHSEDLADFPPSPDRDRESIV
Description: Peak current was measured during the depolarizing step to −15 mV. Leak current was measured after applying a saturating concentration of a blocker such as lidocaine (2 mM) at the end of each experiment to completely block hNav1.5 current.
(§1) Concentration-response relationships for each test article were independently investigated, i.e., each cell received only one test article, typically evaluating multiple concentrations in a cumulative fashion (lowest to highest concentrations). However, some platforms tested only one concentration per well. Each concentration response was based on a minimum of four concentrations, with a minimum of three wells used for each concentration. In cases of high variability, more cells per concentration were recorded. Prior to drug addition, cells received an addition of vehicle to measure non-test article-related effects such as addition artifacts. At the end of the experiment, a supramaximal concentration of a known inhibitory reference compound was applied to assess leak current and appropriate responsiveness of the test system.
(§2) The steady state current at each concentration was used to determine the concentration-response relationships. Mean concentration-response data were fitted to a standard sigmoidal four-parameter logistic equation (GraphPad Prism 7; GraphPad Inc., La Jolla, CA) of the form: Y=Bottom+(Top−Bottom)/(1+10^∧(LogIC50−X)∗HillSlope) where Y is the current inhibition (in % of pre-drug control), X is the logarithm of drug concentration, and IC50 is the drug concentration producing half-maximal current inhibition. Curve fitting was performed using the following constraints: Top = 100%, Bottom = 0%, Hill Slope <2. No curve fitting was performed in cases with an obvious lack of a concentration-dependent current inhibition and/or small effect size (approximately ≤20%).

[2] = target: T2, late hNav1.5 (Homo sapiens, UniProt Q14524); test: Automated patch clamp, late hNav1.5 current block (ATX-II activated); format: cell-based; settings: for Late hNav1.5 Na+ current inhibition, Mean: 1.00E-05 mol/L
T2 construct: expressed in transfected cells; host or cells: HEK293 or CHO, depending on site
T2 sequence (Q14524 whole entry): as above
Description: However, all external solutions contained 30 nM ATX-II in order to activate late current. Late current was measured at its maximum during the repolarizing ramp.
as §1, §2

[3] = based on CiPA evaluations; cited from earlier work
[4] = target: hCav1.2 (Homo sapiens, UniProt Q13936); test: Automated patch clamp, hCav1.2 current block; settings: for IC50: log IC50, half-maximal inhibitory concentration
[5] = site s02_p2, corrected for rundown

Structure (SMILES): C=C[C@H]1C[N@@]2CC[C@H]1C[C@@H]2[C@@H](O)c1ccnc2ccc(OC)cc12 [qui, quinidine]
- Peak hNav1.5 Na+ current inhibition, Mean ([1]; site_platform s01_p1, 1.00E-05 mol/L): 72.9%
- Peak hNav1.5 Na+ current inhibition, Mean ([1]; site_platform s01_p1, 1.00E-07 mol/L): 51.7%
- nH (=constant), peak hNav1.5 Na+ current inhibition ([1]; site_platform s01_p1): 1
- nH (=constant), peak hNav1.5 Na+ current inhibition ([1]; site_platform s02_p2): 1
- nH (=constant), peak hNav1.5 Na+ current inhibition ([1]; site_platform s04_p3): 1
- nH (=constant), peak hNav1.5 Na+ current inhibition ([1]; site_platform s06_p4): 1
- nH (=constant), peak hNav1.5 Na+ current inhibition ([1]; site_platform s07_p6): 1
- nH, Hill slope, peak hNav1.5 inhibition ([1]; site_platform s10_p3): 1
- nH, Hill slope, peak hNav1.5 inhibition ([1]; site_platform s11_p1): 1
- Peak hNav1.5 Na+ current inhibition, Mean ([1]; site_platform s11_p1, 1.00E-05 mol/L): 30.0%
- nH, Hill slope, peak hNav1.5 inhibition ([1]; site_platform s12_p2): 1
- nH, Hill slope, peak hNav1.5 inhibition ([1]; site_platform s13_p2): 1
- nH, Hill slope, peak hNav1.5 inhibition ([1]; site_platform s14_p1): 1
- nH, Hill slope, peak hNav1.5 inhibition ([1]; site_platform s15_p1): 1
- Peak hNav1.5 Na+ current inhibition, Mean ([1]; site_platform s15_p1, 1.00E-05 mol/L): 52.7%
- nH, Hill slope, peak hNav1.5 inhibition ([1]; site_platform s16_p3): 1
- nH, Hill slope, peak hNav1.5 inhibition ([1]; site_platform s17_p1): 1
- Peak hNav1.5 Na+ current inhibition, Mean ([1]; site_platform s17_p1, 1.00E-05 mol/L): 54.0%
- nH, Hill slope, peak hNav1.5 inhibition ([1]; site_platform s18_p1): 1
- nH, Hill slope, peak hNav1.5 inhibition ([1]; site_platform s19_p3): 1
- nH, Hill slope, late hNav1.5 inhibition ([2]; site_platform s06_p4): 0.91
- Late hNav1.5 Na+ current inhibition, Mean ([2]; site_platform s06_p4): 78.1%
- nH, Hill slope, late hNav1.5 inhibition ([2]; site_platform s07_p6): 0.74
- Late hNav1.5 Na+ current inhibition, Mean ([2]; site_platform s07_p6): 46.2%
- nH, Hill slope, late hNav1.5 inhibition ([2]; site_platform s13_p2): 0.63
- nH, Hill slope, late hNav1.5 inhibition ([2]; site_platform s14_p1): 2.00
- Late hNav1.5 Na+ current inhibition, Mean ([2]; site_platform s14_p1): 68.8%
- TdP Risk Category [3]: High

Structure (SMILES): CN(CCOc1ccc(NS(C)(=O)=O)cc1)CCc1ccc(NS(C)(=O)=O)cc1 [dof, dofetilide]
- TdP Risk Category [3]: High

Structure (SMILES): CN(C)CCCN1c2ccccc2Sc2ccc(Cl)cc21 [cpz, chlorpromazine]
- TdP Risk Category [3]: Intermediate

Structure (SMILES): COc1ccccc1OCC(O)CN1CCN(CC(=O)Nc2c(C)cccc2C)CC1 (stereo not shown) [ran, ranolazine]
- TdP Risk Category [3]: Low
- IC50 [4, 5]: 501 µM
- IC50 ([4]; site s06_p4): 186 µM
- IC50 ([4]; site s11_p1): 1350 µM
- IC50 ([4]; site s14_p1): 245 µM
- IC50 ([4]; site s16_p3): 3090 µM
- IC50 ([4]; site s18_p1): 148 µM
- Peak hCav1.2 Ca2+ current inhibition, Mean ([4]; site s01_p1, 1.00E-04 mol/L): 9.0%
- Peak hCav1.2 Ca2+ current inhibition, Mean ([4]; site s01_p1, 3.00E-06 mol/L): -2.7%
- nH, Hill slope [4, 5]: 0.74
- Peak hCav1.2 Ca2+ current inhibition, Mean ([4]; site s02_p2, corrected for rundown, 1.00E-04 mol/L): 22.9%
- Peak hCav1.2 Ca2+ current inhibition, Mean ([4]; site s02_p2, corrected for rundown, 3.00E-06 mol/L): -1.8%
- nH, Hill slope ([4]; site s06_p4): 2.00
- Peak hCav1.2 Ca2+ current inhibition, Mean ([4]; site s06_p4, 1.00E-04 mol/L): 23.0%
- Peak hCav1.2 Ca2+ current inhibition, Mean ([4]; site s06_p4, 3.00E-06 mol/L): 12.9%
- nH, Hill slope ([4]; site s11_p1): 0.32
- Peak hCav1.2 Ca2+ current inhibition, Mean ([4]; site s11_p1, 1.00E-04 mol/L): 33.0%
- Peak hCav1.2 Ca2+ current inhibition, Mean ([4]; site s11_p1, 3.00E-06 mol/L): 14.1%
- nH, Hill slope ([4]; site s14_p1): 1.42
- Peak hCav1.2 Ca2+ current inhibition, Mean ([4]; site s14_p1, 1.00E-04 mol/L): 21.7%
- Peak hCav1.2 Ca2+ current inhibition, Mean ([4]; site s14_p1, 3.00E-06 mol/L): -1.7%
- nH, Hill slope ([4]; site s16_p3): 0.24
- Peak hCav1.2 Ca2+ current inhibition, Mean ([4]; site s16_p3, 1.00E-04 mol/L): 31.8%
- Peak hCav1.2 Ca2+ current inhibition, Mean ([4]; site s16_p3, 3.00E-06 mol/L): 16.5%
- nH, Hill slope ([4]; site s18_p1): 2.00
- Peak hCav1.2 Ca2+ current inhibition, Mean ([4]; site s18_p1, 1.00E-04 mol/L): 36.1%
- Peak hCav1.2 Ca2+ current inhibition, Mean ([4]; site s18_p1, 3.00E-06 mol/L): -14.2%

Structure (SMILES): CC(C)(C)c1ccc(C(O)CCCN2CCC(C(O)(c3ccccc3)c3ccccc3)CC2)cc1 (stereo not shown) [ter, terfenadine]
- nH, Hill slope ([4]; site s01_p1): 1.62
- Peak hCav1.2 Ca2+ current inhibition, Mean ([4]; site s01_p1, 3.00E-07 mol/L): 35.6%
- nH, Hill slope [4, 5]: 1.40
- Peak hCav1.2 Ca2+ current inhibition, Mean ([4]; site s02_p2, corrected for rundown, 3.00E-07 mol/L): 74.7%
- nH, Hill slope ([4]; site s04_p3): 0.41
- Peak hCav1.2 Ca2+ current inhibition, Mean ([4]; site s04_p3, 3.00E-07 mol/L): 32.9%
- nH, Hill slope ([4]; site s16_p3): 0.65
- Peak hCav1.2 Ca2+ current inhibition, Mean ([4]; site s16_p3, 3.00E-07 mol/L): 52.1%
- nH, Hill slope ([4]; site s18_p1): 2.00
- Peak hCav1.2 Ca2+ current inhibition, Mean ([4]; site s18_p1, 3.00E-07 mol/L): 56.4%
